Reference: ChEMBL document CHEMBL4507261, “Data for DCP probe A-192621” (2021)

How the values were obtained:
[1] = target: Dual specificity mitogen-activated protein kinase kinase 5 (Homo sapiens) (UniProt Q13163); conditions: Compound concentration 1000.0 nM
[2] = target: TGF-beta receptor type-1 (Homo sapiens) (UniProt P36897); conditions: Compound concentration 1000.0 nM
[3] = target: Ephrin type-A receptor 4 (Homo sapiens) (UniProt P54764); conditions: Compound concentration 1000.0 nM
[4] = target: Muscle, skeletal receptor tyrosine-protein kinase (Homo sapiens) (UniProt O15146); conditions: Compound concentration 1000.0 nM
[5] = target: Peripheral plasma membrane protein CASK (Homo sapiens) (UniProt O14936); conditions: Compound concentration 1000.0 nM
[6] = target: Tyrosine-protein kinase Fer (Homo sapiens) (UniProt P16591); conditions: Compound concentration 1000.0 nM
[7] = target: Sodium-dependent dopamine transporter (Homo sapiens) (UniProt Q01959); assay: dopamine transporter (h) Eurofins-Cerep binding assay; set-up: ligand concentration 4 nM; conditions: filed as antagonist, Compound concentration 10.0 uM
[8] = target: MAP kinase-activated protein kinase 5 (Homo sapiens) (UniProt Q8IW41); conditions: Compound concentration 1000.0 nM
[9] = system: Epidermal growth factor receptor (Homo sapiens), P00533 [UNDEFINED MUTATION]; conditions: Compound concentration 1000.0 nM
[10] = target: Serine/threonine-protein kinase PAK 4 (Homo sapiens) (UniProt O96013); conditions: Compound concentration 1000.0 nM
[11] = target: Mitogen-activated protein kinase kinase kinase 7 (Homo sapiens) (UniProt O43318); conditions: Compound concentration 1000.0 nM
[12] = target: Adenosine receptor A2b (Homo sapiens) (UniProt P29275); assay: A2B (h) Eurofins-Cerep binding assay; set-up: ligand concentration 5 nM; conditions: filed as antagonist, Compound concentration 10.0 uM
[13] = target: Serine/threonine-protein kinase 32C (Homo sapiens) (UniProt Q86UX6); conditions: Compound concentration 1000.0 nM
[14] = target: 5-hydroxytryptamine receptor 1A (Homo sapiens) (UniProt P08908); assay: 5-HT1A (h) Eurofins-Cerep binding assay; set-up: ligand concentration 0.5 nM; conditions: filed as agonist, Compound concentration 10.0 uM
[15] = target: Casein kinase II subunit alpha' (Homo sapiens) (UniProt P19784); conditions: Compound concentration 1000.0 nM
[16] = target: Ribosomal protein S6 kinase alpha-6 (Homo sapiens) (UniProt Q9UK32); conditions: Compound concentration 1000.0 nM
[17] = target: Tyrosine-protein kinase Fes/Fps (Homo sapiens) (UniProt P07332); conditions: Compound concentration 1000.0 nM
[18] = target: Phosphatidylinositol 4,5-bisphosphate 3-kinase catalytic subunit alpha isoform (Homo sapiens) (UniProt P42336); conditions: Compound concentration 1000.0 nM
[19] = target: Hormonally up-regulated neu tumor-associated kinase (Homo sapiens) (UniProt P57058); conditions: Compound concentration 1000.0 nM
[20] = target: Serine/threonine-protein kinase Sgk1 (Homo sapiens) (UniProt O00141); conditions: Compound concentration 1000.0 nM
[21] = target: Ribosomal protein S6 kinase alpha-3 (Homo sapiens) (UniProt P51812); conditions: Compound concentration 1000.0 nM
[22] = target: BDNF/NT-3 growth factors receptor (Homo sapiens) (UniProt Q16620); conditions: Compound concentration 1000.0 nM
[23] = target: Receptor tyrosine-protein kinase erbB-2 (Homo sapiens) (UniProt P04626); conditions: Compound concentration 1000.0 nM
[24] = system: Serine/threonine-protein kinase B-raf (Homo sapiens), P15056 [V600E]; conditions: Compound concentration 1000.0 nM
[25] = target: Cyclin-dependent kinase 17 (Homo sapiens) (UniProt Q00537); conditions: Compound concentration 1000.0 nM
[26] = target: Rhodopsin kinase GRK1 (Homo sapiens) (UniProt Q15835); conditions: Compound concentration 1000.0 nM
[27] = target: Serine/threonine-protein kinase mTOR (Homo sapiens) (UniProt P42345); conditions: Compound concentration 1000.0 nM
[28] = target: Rho-associated protein kinase 2 (Homo sapiens) (UniProt O75116); conditions: Compound concentration 1000.0 nM
[29] = target: Adenosine receptor A2a (Homo sapiens) (UniProt P29274); assay: A2A (h) Eurofins-Cerep binding assay; set-up: ligand concentration 6 nM; conditions: filed as agonist, Compound concentration 10.0 uM
[30] = target: Mitogen-activated protein kinase kinase kinase 19 (Homo sapiens) (UniProt Q56UN5); conditions: Compound concentration 1000.0 nM
[31] = target: Tyrosine-protein kinase TXK (Homo sapiens) (UniProt P42681); conditions: Compound concentration 1000.0 nM
[32] = target: Calcium/calmodulin-dependent protein kinase kinase 1 (Homo sapiens) (UniProt Q8N5S9); conditions: Compound concentration 1000.0 nM
[33] = target: Serine/threonine-protein kinase ICK (Homo sapiens) (UniProt Q9UPZ9); conditions: Compound concentration 1000.0 nM
[34] = target: Homeodomain-interacting protein kinase 2 (Homo sapiens) (UniProt Q9H2X6); conditions: Compound concentration 1000.0 nM
[35] = target: Citron Rho-interacting kinase (Homo sapiens) (UniProt O14578); conditions: Compound concentration 1000.0 nM
[36] = target: AP2-associated protein kinase 1 (Homo sapiens) (UniProt Q2M2I8); conditions: Compound concentration 1000.0 nM
[37] = target: Prostaglandin E2 receptor EP2 subtype (Homo sapiens) (UniProt P43116); assay: EP2 (h) Eurofins-Cerep binding assay; set-up: ligand concentration 3 nM; conditions: filed as agonist, Compound concentration 10.0 uM
[38] = target: Serine/threonine-protein kinase Nek4 (Homo sapiens) (UniProt P51957); conditions: Compound concentration 1000.0 nM
[39] = target: Myosin-IIIa (Homo sapiens) (UniProt Q8NEV4); conditions: Compound concentration 1000.0 nM
[40] = target: Activin receptor type-1B (Homo sapiens) (UniProt P36896); conditions: Compound concentration 1000.0 nM
[41] = target: cAMP-dependent protein kinase catalytic subunit PRKX (Homo sapiens) (UniProt P51817); conditions: Compound concentration 1000.0 nM
[42] = target: Glutamate NMDA receptor (Rattus norvegicus) (UniProt P35439+Q00959+Q00960+Q00961+Q62645+Q8VHN2+Q9R1M7); assay: NMDA Eurofins-Cerep binding assay; assay type: protein-complex assay; set-up: ligand concentration 5 nM; conditions: filed as antagonist, Compound concentration 10.0 uM
[43] = target: Homeodomain-interacting protein kinase 4 (Homo sapiens) (UniProt Q8NE63); conditions: Compound concentration 1000.0 nM
[44] = target: Type-1 angiotensin II receptor (Homo sapiens) (UniProt P30556); assay: AT1 (h) Eurofins-Cerep binding assay; set-up: ligand concentration 0.05 nM; conditions: filed as antagonist, Compound concentration 10.0 uM
[45] = target: cGMP-inhibited 3',5'-cyclic phosphodiesterase 3A (Homo sapiens) (UniProt Q14432); assay: PDE3A (h) Eurofins-Cerep enzyme and uptake assay; conditions: Compound concentration 10.0 uM
Sequence of cGMP-inhibited 3',5'-cyclic phosphodiesterase 3A (Homo sapiens) (Q14432 whole entry): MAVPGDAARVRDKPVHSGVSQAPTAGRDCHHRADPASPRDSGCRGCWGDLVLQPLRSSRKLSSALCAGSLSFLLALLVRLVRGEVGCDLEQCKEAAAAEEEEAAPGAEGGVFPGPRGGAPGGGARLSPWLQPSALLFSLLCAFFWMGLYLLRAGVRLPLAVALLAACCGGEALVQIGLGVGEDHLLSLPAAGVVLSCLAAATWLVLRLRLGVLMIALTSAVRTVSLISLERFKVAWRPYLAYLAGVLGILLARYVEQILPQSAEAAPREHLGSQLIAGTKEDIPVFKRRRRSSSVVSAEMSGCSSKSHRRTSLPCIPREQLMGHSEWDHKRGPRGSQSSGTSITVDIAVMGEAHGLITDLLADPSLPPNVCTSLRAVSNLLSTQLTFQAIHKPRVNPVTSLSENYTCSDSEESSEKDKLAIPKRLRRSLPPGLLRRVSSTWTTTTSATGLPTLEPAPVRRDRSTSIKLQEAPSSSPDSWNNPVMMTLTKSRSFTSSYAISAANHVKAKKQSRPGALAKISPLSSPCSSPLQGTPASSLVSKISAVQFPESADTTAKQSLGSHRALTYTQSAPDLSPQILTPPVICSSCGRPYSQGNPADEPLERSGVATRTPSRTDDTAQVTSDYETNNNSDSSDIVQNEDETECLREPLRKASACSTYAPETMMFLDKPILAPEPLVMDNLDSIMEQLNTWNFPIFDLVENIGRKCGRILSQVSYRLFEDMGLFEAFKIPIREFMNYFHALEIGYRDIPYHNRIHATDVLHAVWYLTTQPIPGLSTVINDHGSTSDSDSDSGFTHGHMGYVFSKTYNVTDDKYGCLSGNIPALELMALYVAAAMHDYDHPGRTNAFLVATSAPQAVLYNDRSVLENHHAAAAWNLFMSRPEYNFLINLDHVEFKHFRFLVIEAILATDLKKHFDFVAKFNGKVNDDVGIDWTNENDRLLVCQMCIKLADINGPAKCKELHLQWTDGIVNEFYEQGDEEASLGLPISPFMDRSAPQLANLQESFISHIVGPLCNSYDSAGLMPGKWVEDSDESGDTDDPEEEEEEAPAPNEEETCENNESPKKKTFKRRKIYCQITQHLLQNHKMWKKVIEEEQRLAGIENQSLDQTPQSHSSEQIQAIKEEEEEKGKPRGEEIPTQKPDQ

Sequence of Muscle, skeletal receptor tyrosine-protein kinase (Homo sapiens) (O15146 whole entry): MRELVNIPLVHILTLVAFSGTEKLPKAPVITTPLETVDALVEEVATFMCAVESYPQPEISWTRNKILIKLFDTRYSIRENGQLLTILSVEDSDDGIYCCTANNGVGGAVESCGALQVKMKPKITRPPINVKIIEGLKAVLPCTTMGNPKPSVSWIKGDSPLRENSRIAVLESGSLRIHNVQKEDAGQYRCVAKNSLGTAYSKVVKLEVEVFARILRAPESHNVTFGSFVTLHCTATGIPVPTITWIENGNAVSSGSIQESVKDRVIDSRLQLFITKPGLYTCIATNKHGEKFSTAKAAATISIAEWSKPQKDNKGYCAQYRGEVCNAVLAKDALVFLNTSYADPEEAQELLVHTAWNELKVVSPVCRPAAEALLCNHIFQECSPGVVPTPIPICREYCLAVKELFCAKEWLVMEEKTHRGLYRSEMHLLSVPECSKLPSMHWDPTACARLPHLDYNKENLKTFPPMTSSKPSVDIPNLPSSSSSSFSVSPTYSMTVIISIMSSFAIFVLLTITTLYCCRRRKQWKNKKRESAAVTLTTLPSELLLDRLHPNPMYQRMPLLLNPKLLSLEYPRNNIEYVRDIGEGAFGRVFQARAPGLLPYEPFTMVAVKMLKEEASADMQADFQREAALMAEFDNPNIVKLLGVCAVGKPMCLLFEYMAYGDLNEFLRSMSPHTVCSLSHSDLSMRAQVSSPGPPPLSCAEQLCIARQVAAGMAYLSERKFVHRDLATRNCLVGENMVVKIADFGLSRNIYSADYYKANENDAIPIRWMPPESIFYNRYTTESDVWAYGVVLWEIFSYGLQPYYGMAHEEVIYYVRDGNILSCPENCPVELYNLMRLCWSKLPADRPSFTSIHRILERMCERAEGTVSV
Sequence of Homeodomain-interacting protein kinase 2 (Homo sapiens) (Q9H2X6 whole entry, looked up): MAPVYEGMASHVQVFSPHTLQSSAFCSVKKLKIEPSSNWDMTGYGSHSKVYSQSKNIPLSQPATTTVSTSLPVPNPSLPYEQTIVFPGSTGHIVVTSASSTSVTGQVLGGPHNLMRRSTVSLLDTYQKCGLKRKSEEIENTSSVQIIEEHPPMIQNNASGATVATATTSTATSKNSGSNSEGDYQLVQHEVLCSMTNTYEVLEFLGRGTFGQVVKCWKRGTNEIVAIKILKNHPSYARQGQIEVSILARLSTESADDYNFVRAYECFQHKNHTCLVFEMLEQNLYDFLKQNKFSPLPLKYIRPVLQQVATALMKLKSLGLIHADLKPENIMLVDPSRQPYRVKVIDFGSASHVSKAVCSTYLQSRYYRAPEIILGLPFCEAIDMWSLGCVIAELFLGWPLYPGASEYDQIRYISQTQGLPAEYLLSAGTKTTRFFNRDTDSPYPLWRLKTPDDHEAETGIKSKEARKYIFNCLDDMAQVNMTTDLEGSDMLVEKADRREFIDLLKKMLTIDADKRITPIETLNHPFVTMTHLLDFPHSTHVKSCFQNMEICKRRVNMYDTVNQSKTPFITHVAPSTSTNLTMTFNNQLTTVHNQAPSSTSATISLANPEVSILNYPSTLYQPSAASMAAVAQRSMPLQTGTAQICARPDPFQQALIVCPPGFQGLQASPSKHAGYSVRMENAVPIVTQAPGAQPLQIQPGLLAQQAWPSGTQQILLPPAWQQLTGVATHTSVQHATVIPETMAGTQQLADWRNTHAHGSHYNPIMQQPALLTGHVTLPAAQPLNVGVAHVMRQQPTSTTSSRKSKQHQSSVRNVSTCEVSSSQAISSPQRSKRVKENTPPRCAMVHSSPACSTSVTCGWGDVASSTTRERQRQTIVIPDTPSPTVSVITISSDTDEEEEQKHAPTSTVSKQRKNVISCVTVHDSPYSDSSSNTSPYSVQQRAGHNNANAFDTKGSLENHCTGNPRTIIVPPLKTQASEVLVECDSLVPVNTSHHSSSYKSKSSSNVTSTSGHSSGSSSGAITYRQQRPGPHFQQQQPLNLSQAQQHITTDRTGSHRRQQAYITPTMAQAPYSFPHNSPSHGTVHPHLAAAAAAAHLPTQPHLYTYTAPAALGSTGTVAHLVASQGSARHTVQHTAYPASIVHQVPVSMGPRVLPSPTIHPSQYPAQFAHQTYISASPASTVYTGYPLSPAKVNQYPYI
Sequence of Ephrin type-A receptor 4 (Homo sapiens) (P54764 whole entry): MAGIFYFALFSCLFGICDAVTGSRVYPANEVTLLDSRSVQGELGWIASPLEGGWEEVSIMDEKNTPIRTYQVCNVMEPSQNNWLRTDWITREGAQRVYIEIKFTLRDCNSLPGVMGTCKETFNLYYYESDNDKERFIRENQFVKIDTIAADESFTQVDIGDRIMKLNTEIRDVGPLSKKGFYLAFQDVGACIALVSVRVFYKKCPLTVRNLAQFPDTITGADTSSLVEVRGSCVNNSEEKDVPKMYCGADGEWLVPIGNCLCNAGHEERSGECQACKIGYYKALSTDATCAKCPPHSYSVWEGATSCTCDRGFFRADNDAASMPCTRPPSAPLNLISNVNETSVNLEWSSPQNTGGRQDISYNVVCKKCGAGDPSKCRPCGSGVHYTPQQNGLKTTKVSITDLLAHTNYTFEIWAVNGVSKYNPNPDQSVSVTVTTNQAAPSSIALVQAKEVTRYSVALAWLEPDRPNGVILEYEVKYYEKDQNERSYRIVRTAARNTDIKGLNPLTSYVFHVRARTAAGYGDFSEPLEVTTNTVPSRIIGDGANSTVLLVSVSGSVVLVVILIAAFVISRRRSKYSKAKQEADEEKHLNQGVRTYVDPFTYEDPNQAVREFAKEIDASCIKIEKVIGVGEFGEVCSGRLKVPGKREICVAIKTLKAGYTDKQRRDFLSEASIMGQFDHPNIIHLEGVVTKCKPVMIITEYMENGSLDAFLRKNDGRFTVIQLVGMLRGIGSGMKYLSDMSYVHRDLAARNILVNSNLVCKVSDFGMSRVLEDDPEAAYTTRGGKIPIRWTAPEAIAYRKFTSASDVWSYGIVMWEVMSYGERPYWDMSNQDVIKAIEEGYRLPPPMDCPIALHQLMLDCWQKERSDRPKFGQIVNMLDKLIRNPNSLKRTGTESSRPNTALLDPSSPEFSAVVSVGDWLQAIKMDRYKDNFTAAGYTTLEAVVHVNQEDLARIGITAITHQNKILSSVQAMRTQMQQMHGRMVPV
Sequence of Dual specificity mitogen-activated protein kinase kinase 5 (Homo sapiens) (Q13163 whole entry): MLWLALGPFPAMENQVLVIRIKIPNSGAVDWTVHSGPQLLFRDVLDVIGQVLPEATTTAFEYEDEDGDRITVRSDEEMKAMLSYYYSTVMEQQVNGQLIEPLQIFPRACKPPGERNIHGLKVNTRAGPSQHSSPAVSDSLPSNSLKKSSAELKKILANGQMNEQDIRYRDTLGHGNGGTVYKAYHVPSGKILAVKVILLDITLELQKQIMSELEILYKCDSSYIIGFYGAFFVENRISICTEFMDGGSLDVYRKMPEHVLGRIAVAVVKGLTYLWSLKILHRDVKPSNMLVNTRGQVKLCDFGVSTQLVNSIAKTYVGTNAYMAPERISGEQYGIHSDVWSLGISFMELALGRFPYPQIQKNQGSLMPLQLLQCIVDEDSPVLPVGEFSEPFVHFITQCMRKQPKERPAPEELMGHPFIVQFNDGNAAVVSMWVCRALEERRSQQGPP
Sequence of Type-1 angiotensin II receptor (Homo sapiens) (P30556 whole entry): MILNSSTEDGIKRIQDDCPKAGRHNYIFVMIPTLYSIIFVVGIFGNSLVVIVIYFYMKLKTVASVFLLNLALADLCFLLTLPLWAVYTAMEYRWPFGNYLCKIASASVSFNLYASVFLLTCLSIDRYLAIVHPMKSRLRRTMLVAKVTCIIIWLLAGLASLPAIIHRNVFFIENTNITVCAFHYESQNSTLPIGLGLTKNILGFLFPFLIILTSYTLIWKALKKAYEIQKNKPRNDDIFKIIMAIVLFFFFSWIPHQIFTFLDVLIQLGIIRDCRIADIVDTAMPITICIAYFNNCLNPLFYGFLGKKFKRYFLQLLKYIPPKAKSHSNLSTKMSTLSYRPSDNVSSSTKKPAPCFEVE

CCCOc1ccc([C@H]2[C@H](C(=O)O)[C@@H](c3ccc4c(c3)OCO4)CN2CC(=O)Nc2c(CC)cccc2CC)cc1 [A-192621]
residual activity [1]: 63% | residual activity [2]: 64% | residual activity [3]: 97% | residual activity [4]: 82% | residual activity [5]: 77% | residual activity [6]: 100% | % Inhibition of Control Specific Binding (Mean n=2) [7]: 23.6% | residual activity [8]: 65% | residual activity [9]: 100% | residual activity [10]: 91% | residual activity [11]: 100% | % Inhibition of Control Specific Binding (Mean n=2) [12]: -6.1% | residual activity [13]: 100% | % Inhibition of Control Specific Binding (Mean n=2) [14]: -5.9% | residual activity [15]: 87% | residual activity [16]: 78% | residual activity [17]: 96% | residual activity [18]: 80% | residual activity [19]: 100% | residual activity [20]: 63% | residual activity [21]: 72% | residual activity [22]: 85% | residual activity [23]: 79% | residual activity [24]: 76% | residual activity [25]: 91% | residual activity [26]: 68% | residual activity [27]: 77% | residual activity [28]: 69% | % Inhibition of Control Specific Binding (Mean n=2) [29]: -4.8% | residual activity [30]: 77% | residual activity [31]: 85% | residual activity [32]: 86% | residual activity [33]: 59% | residual activity [34]: 66% | residual activity [35]: 83% | residual activity [36]: 95% | % Inhibition of Control Specific Binding (Mean n=2) [37]: 10.1% | residual activity [38]: 71% | residual activity [39]: 100% | residual activity [40]: 99% | residual activity [41]: 91% | % Inhibition of Control Specific Binding (Mean n=2) [42]: 3.3% | residual activity [43]: 70% | % Inhibition of Control Specific Binding (Mean n=2) [44]: 1.5% | % Inhibition of Control Values (Mean n=2) [45]: 29%

CCCOc1ccc([C@@H]2[C@@H](C(=O)O)[C@H](c3ccc4c(c3)OCO4)CN2CC(=O)Nc2c(CC)cccc2CC)cc1 [A-1806262]
residual activity [1]: 100% | residual activity [2]: 64% | residual activity [3]: 75% | residual activity [4]: 97% | residual activity [5]: 89% | residual activity [6]: 100% | % Inhibition of Control Specific Binding (Mean n=2) [7]: 18.3% | residual activity [8]: 87% | residual activity [9]: 78% | residual activity [10]: 91% | residual activity [11]: 97% | % Inhibition of Control Specific Binding (Mean n=2) [12]: -8.6% | residual activity [13]: 100% | % Inhibition of Control Specific Binding (Mean n=2) [14]: -3.8% | residual activity [15]: 83% | residual activity [16]: 91% | residual activity [17]: 97% | residual activity [18]: 84% | residual activity [19]: 70% | residual activity [20]: 75% | residual activity [21]: 95% | residual activity [22]: 100% | residual activity [23]: 80% | residual activity [24]: 98% | residual activity [25]: 90% | residual activity [26]: 100% | residual activity [27]: 100% | residual activity [28]: 84% | % Inhibition of Control Specific Binding (Mean n=2) [29]: -12.4% | residual activity [30]: 93% | residual activity [31]: 100% | residual activity [32]: 81% | residual activity [33]: 100% | residual activity [34]: 80% | residual activity [35]: 98% | residual activity [36]: 90% | % Inhibition of Control Specific Binding (Mean n=2) [37]: 10.7% | residual activity [38]: 72% | residual activity [39]: 100% | residual activity [40]: 90% | residual activity [41]: 89% | % Inhibition of Control Specific Binding (Mean n=2) [42]: 6.6% | residual activity [43]: 65% | % Inhibition of Control Specific Binding (Mean n=2) [44]: -3.8% | % Inhibition of Control Values (Mean n=2) [45]: 34.5%
